In data set [1] the test system is mouse lymphatic leukemia P-388. As to the kind of experiment: Antileukemic activity against Leukemia P-388 in mice. In kind it is in vivo, mouse (SLC-BDF1, male). Conditions: intraperitoneal, every 24 hours, 9 doses; for Median survival time: control 10.2 days; for Increase of Life Span: vs control. The procedure: The antitumor activity and acute toxicity of the acyl derivatives of 2-[3-(2-chloroethyl)-3-nitrosoureido]-2-deoxy-D-glucopyranose according to this invention can be conveniently observed in recognized animal models. 1,000,000 cells of mouse lymphatic leukemia P-388 were intraperitoneally transplanted into each mouse (SLC-BDF1, male, 18 g.congruent.1 g, 5 weeks old). After 24 hours and thereafter at intervals of 24 hours, a predetermined amount of an acyl derivative of 2-[3-(2-chloroethyl)-3-nitro-soureido]-2-deoxy-D-glucopyramose was intraperitoneally administered for a total of 9 doses. The mice were reared under observation.

Another data set in a line: Acute toxicities in mice. Conditions: mice (male, ddy), intraperitoneal single dose, 7 days survival. In kind it is in vivo. An excerpt:
Acute toxicities in mice (male, ddy).
*Intraperitoneal administration of a single dose, 7 days survival.

Results on four compounds are retold here after patent publication US4211866A, “Acyl derivatives of 2-[3-(2-chloroethyl)-3-nitrosoureido]-2-deoxy-D-glucopyranose” (Nippon Shinyaku Co., Ltd., priority 1977, dated 1980).

As usually defined, the LD50 is the dose at which mortality reaches 50%.

Take “2-[3-(2-chloroethyl)-3-nitrosoureido]-2-deoxy-D-glucopyranose monopalmitate”: the Median survival time in data set [1] (0.125 mg/Kg/dose) was 14.8 days; in data set [1] (0.25 mg/Kg/dose), 15.5 days; in data set [1] (0.5 mg/Kg/dose), 16.3 days; in data set [1] (1.0 mg/Kg/dose) it was 17.5 days. Further, the “Increase of Life Span” value in data set [1] (0.125 mg/Kg/dose) is 45.1%; in data set [1] (0.25 mg/Kg/dose), 52.0%; in data set [1] (0.5 mg/Kg/dose) it was 59.8%; in data set [1] (1.0 mg/Kg/dose), 71.6%. The compound further had an LD50 in “Acute toxicities in mice” of 162.5 mg/kg.
As to “2-[3-(2-chloroethyl)-3-nitrosoureido]-2-deoxy-D-glucopyranose dipalmitate”, the Median survival time was 16.5 days in data set [1] (0.125 mg/Kg/dose), 17.8 days in data set [1] (0.25 mg/Kg/dose), 19.3 days in data set [1] (0.5 mg/Kg/dose) and 21.0 days in data set [1] (1.0 mg/Kg/dose). Moreover, the “Increase of Life Span” value in data set [1] (0.125 mg/Kg/dose) is on record as 61.8%; in data set [1] (0.25 mg/Kg/dose), 74.5%; in data set [1] (0.5 mg/Kg/dose) it was 89.2%; in data set [1] (1.0 mg/Kg/dose), 105.9%. Further, in “Acute toxicities in mice”, the 50% lethal dose (LD50) is more than 800 mg/kg.
Regarding `O=NN(CCCl)C(=O)N[C@H]1C(O)O[C@H](CO)[C@@H](O)[C@@H]1O` (stereo partly drawn) [Chlorozotocin, 2-[3-(2-Chloroethyl)-3-nitrosoureido]-2-deoxy-D-glucopyranose], the Median survival time in data set [1] (0.125 mg/Kg/dose) amounted to 12.3 days; in data set [1] (0.25 mg/Kg/dose), 14.5 days; in data set [1] (0.5 mg/Kg/dose), 16.3 days; in data set [1] (1.0 mg/Kg/dose), 18.8 days. Further, the “Increase of Life Span” value is reported as 20.6% in data set [1] (0.125 mg/Kg/dose), 42.2% in data set [1] (0.25 mg/Kg/dose), 59.8% in data set [1] (0.5 mg/Kg/dose) and 84.3% in data set [1] (1.0 mg/Kg/dose). The same compound came in with an LD50 at 168 h in “Acute toxicities in mice” (mouse, in vivo, ip) of 45 to 47 mg/kg.
In turn, “2-[3-(2-chloroethyl-3-nitrosoureidol]-2-deoxy-D-glucopyranose tripalmitate” came in with an LD50 in “Acute toxicities in mice” of more than 800 mg/kg.
